The values that follow come from patent US20040171062A1, “Methods for the design of molecular scaffolds and ligands” (Plexxikon, Inc., priority 2002, published 2004).

A word on the IC50: it is the concentration that inhibits the measured activity by half. The term Kd denotes the concentration at which binding is half-saturated. A high value points to weaker binding. One may read the inhibition as how much of the control response was suppressed. High values mean strong suppression, low ones little suppression.

Type in all cases: biochemical
Experiment [1] concerns the target T1, Pyk2 kinase domain residues 419 to 691 (Homo sapiens, UniProt Q14289).
T1 construct: PYK2 kinase domain I420-M691; hexa-histidine (thrombin-cleavable, pET15S; leaves GSHM before I420) (N, cleaved yes); made in house; host or cells: E. coli BL21 (DE3) pLysS
Briefly: Pyk2 kinase domain AlphaScreen activity and inhibition by ATP analogs. The conditions noted are these: Pyk2 at 8 ng/well, ATP at 10 uM; for IC50: fit y = ((Vmax*x^n)/(K^n + x^n)) + Y2; for effect on PYK2: in the concentration tested. On the procedure:
Inhibition by ATP analogs was tested with Pyk2 at 8 ng/well and ATP at 10 uM.
On the technique in general: Alpha assays give light when donor and acceptor beads are brought close together.

The target of experiment [2] is T1, Pyk2 kinase domain residues 419 to 691. The experiment is described as above.
The next experiment concerns the target T2, Pyk2 (Homo sapiens, UniProt Q14289).
T2 construct: the Pyk2 was the kinase domain-(His)6 fusion; (His)6 (C); made in house; host or cells: E. coli BL21
In words: Pyk-2 inhibitory activity (kinase ELISA, poly(Glu:Tyr)). In general terms: In an ELISA, binding on a coated surface is turned into a signal by an enzyme label.

In a further experiment the target is T3, PIM-1 (Homo sapiens, UniProt P11309).
T3 construct: expressing PIM-1 kinase domain (29-313) was suspended; made in house; host or cells: E. coli BL21(DE3)pLysS
In words: PIM-1 kinase activity assay (MBP substrate, 33P-ATP FlashPlate).

T1 sequence (Q14289 420-691): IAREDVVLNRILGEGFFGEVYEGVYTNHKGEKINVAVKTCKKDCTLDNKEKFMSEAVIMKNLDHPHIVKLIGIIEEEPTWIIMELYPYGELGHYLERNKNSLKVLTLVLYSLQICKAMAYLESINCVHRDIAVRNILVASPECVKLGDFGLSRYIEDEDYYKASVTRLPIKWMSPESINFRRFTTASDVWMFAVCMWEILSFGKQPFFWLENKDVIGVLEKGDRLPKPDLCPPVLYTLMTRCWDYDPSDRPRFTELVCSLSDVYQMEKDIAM
T3 sequence (P11309 29-313): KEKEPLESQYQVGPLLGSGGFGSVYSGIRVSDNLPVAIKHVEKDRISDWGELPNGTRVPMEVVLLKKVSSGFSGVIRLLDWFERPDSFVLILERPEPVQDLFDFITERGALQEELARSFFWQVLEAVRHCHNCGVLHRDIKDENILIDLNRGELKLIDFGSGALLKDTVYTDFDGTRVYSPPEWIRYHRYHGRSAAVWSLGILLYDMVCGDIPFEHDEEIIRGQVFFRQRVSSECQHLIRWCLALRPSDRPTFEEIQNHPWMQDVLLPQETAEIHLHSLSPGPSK
T2 sequence (Q14289 425-683 limits assumed): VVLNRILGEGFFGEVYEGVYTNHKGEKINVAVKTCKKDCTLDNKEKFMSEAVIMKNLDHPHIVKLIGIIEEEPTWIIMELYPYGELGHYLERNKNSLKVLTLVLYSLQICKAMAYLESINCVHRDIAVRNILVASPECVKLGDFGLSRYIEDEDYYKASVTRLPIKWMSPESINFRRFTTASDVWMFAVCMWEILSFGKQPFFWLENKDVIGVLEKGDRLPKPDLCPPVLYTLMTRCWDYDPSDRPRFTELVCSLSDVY
Procedure for PIM-1: Inhibitory or exhitory activity of compounds binding to PIM-1 was determined using a kinase assay.
An assay for kinase activity that can be used for PIM kinases, e.g., PIM-1, can be performed according to the following procedure using purified kinase using myelin basic protein (MBP) as substrate.
Coat scintillation plate suitable for radioactivity counting (e.g., FlashPlate from Perkin-Elmer, such as the SMP200(basic)) with kinase+MBP mix (final 100 ng+300 ng/well) at 90-μL/well in kinase buffer. Add compounds at 1 μL/well from 10 mM stock in DMSO. Positive control wells are added with 1 μL of DMSO. Negative control wells are added with 2 μL of EDTA stock solution. ATP solution (10 μL) is added to each well to provide a final concentration of cold ATP is 2 μM, and 50 nCi ATPγ[^33P]. The plate is shaken briefly, and a count is taken to initiate count (IC) using an apparatus adapted for counting with the plate selected, e.g., Perkin-Elmer Trilux. Store the plate at 37° C. for 4 hrs, then count again to provide final count (FC).
Net 33P incorporation (NI) is calculated as: NI=FC−IC.
The effect of the present of a test compound can then be calculated as the percent of the positive control as: % PC=[(NI−NC)/(PC−NC)]×100, where NC is the net incorporation for the negative control, and PC is the net incorporation for the positive control. […]

On to `Nc1ncnc2c1ncn2[C@@H]1O[C@H](COP(=O)(O)OP(=O)(O)O)[C@@H](O)[C@H]1O` [ADT], for which, in experiment [1], the “affinity with Pyk2” value turned out to be 14 µM and the IC50 came out at 14.9 µM.

On to `Nc1ncnc2c1ncn2[C@@H]1O[C@H](COP(=O)(O)OP(=O)(O)CP(=O)(O)O)[C@@H](O)[C@H]1O` [AMPPCP], for which, in experiment [1], the IC50 worked out at 7690 µM and the “effect on PYK2” value is reported as “little effect”.

`Nc1ncnc2c1ncn2C1OC(COP(=O)(O)OP(=O)(O)NP(=O)(O)O)C(O)C1O` (centres unmarked) [AMPPNP, 5′-adenylylimidodiphosphate]: in experiment [1], the IC50 came to 18.1 µM.

Turning to `Nc1ncnc2c1ncn2[C@@H]1O[C@H](COP(=O)(O)O)[C@@H](O)[C@H]1O` [AMP], in experiment [1], the IC50 turned out to be 80.2 µM.

Take `Nc1ncnc2c1ncn2[C@@H]1O[C@H](COP(=O)(O)OP(=O)(O)OP(O)(O)=S)[C@@H](O)[C@H]1O` [ATP-g-S]: in experiment [1], the “affinity with Pyk2” value worked out at 14 µM and the IC50 worked out at 13.6 µM. On to `Nc1ncnc2c1ncn2[C@@H]1O[C@H](COP(=O)(O)OP(=O)(O)OP(=O)(O)O)[C@@H](O)[C@H]1O` [ATP], for which the “K (Pyk2 activity)” value in experiment [2] (Pyk2 8 ng/well, 384-well plate, fit y = (Vmax*x)/(K + x)) was found to be 7.37 µM. For the same molecule, the affinity in experiment [2] (Pyk2 at 8 ng/well in 384-well plate, AlphaScreen), expressed as Kd, was 7.34 µM.

With `Nc1ncnc2c1ncn2[C@@H]1O[C@H](CO)[C@@H](O)[C@H]1O` [Adenosine], the “effect on PYK2” value in experiment [1] was “little effect”. On to `c1cnc2[nH]ccc2c1` [Formula III, R1=R2=R3=R4=R5=H], for which the IC50 is greater than 200 µM on Pyk2 and greater than 200 µM on PIM-1 (read-out: IC50, inhibitory activity against PIM-1). At PIM-1 (at 200 μM concentration), this molecule came in with an inhibition at 200 µM of 8%.
